Laboratory results from PubChem BioAssay AID248 (DTP/NCI, 2004).
“And” between values parts separate entries of the source, which are not always exact repeats. Equal entries are not always repeated. Inconclusive results and toxic doses are left out. Rule as the data show it: active = T/C of 150% or more; inactive = T/C below 125%.

Test system: L1210 leukemia ip in BDF1 mice, survival T/C
Experiment: NCI In Vivo Anticancer Drug Screen. Data for tumor model L1210 Leukemia (intraperitoneal) in B6D2F1 (BDF1) mice
Details: endpoint: mean survival time, higher = longer survival
How it was run: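 Value reflects the ratio of survival in compound-treated mice to survival in vehicle-treated controls, with both groups carrying the same transplanted tumor.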

[1] = dose: 100.0 mg/kg/injection, schedule: Q01DX001 (ip), vehicle: saline
[2] = dose: 200.0 mg/kg/injection, schedule: Q01DX001 (ip), vehicle: saline
[3] = dose: 400.0 mg/kg/injection, schedule: Q01DX001 (ip), vehicle: saline
[4] = dose: 100.0 mg/kg/injection, schedule: Q04DX002 (ip), vehicle: Klucel (hydroxypropylcellulose) (HPC)
[5] = dose: 400.0 mg/kg/injection, schedule: Q04DX002 (ip), vehicle: Klucel (hydroxypropylcellulose) (HPC)
[6] = dose: 25.0 mg/kg/injection, schedule: Q01DX009 (ip), vehicle: saline with Tween-80
[7] = dose: 25.0 mg/kg/injection, schedule: Q04DX003 (ip), vehicle: saline with Tween-80
[8] = dose: 50.0 mg/kg/injection, schedule: Q01DX009 (ip), vehicle: saline with Tween-80
[9] = dose: 50.0 mg/kg/injection, schedule: Q04DX003 (ip), vehicle: saline with Tween-80
[10] = dose: 100.0 mg/kg/injection, schedule: Q04DX003 (ip), vehicle: saline with Tween-80
[11] = dose: 200.0 mg/kg/injection, schedule: Q04DX003 (ip), vehicle: saline with Tween-80
[12] = dose: 400.0 mg/kg/injection, schedule: Q04DX003 (ip), vehicle: saline with Tween-80
[13] = dose: 100.0 mg/kg/injection, schedule: Q01DX009 (ip), vehicle: Klucel (hydroxypropylcellulose) (HPC)
[14] = dose: 200.0 mg/kg/injection, schedule: Q01DX009 (ip), vehicle: Klucel (hydroxypropylcellulose) (HPC)
[15] = dose: 50.0 mg/kg/injection, schedule: Q01DX009 (ip), vehicle: Klucel (hydroxypropylcellulose) (HPC)
[16] = dose: 100.0 mg/kg/injection, schedule: Q04DX003 (ip), vehicle: Klucel (hydroxypropylcellulose) (HPC)

Measured: T/C

COc1ccc(COC2C(O)C(CO)OC2n2ccc(N)nc2=O)cc1 (configuration not stated)
inactive: dose: 12.5 mg/kg/injection, schedule: Q01DX005 (ip), vehicle: saline 103 % of control | dose: 25.0 mg/kg/injection, schedule: Q01DX005 (ip), vehicle: saline 100 % of control | dose: 50.0 mg/kg/injection, schedule: Q01DX005 (ip), vehicle: saline 94 % of control | dose: 100.0 mg/kg/injection, schedule: Q01DX005 (ip), vehicle: saline 107 % of control

CCOC(=O)C1=C(C)NC(C)=C(C(=O)OCC)C1c1ccnc2ccccc12
inactive: dose: 100.0 mg/kg/injection, schedule: Q01DX001 (ip), vehicle: steriod suspending solution 93 % of control | dose: 200.0 mg/kg/injection, schedule: Q01DX001 (ip), vehicle: steriod suspending solution 94 % of control | dose: 400.0 mg/kg/injection, schedule: Q01DX001 (ip), vehicle: steriod suspending solution 89 % of control

CC1(C)S[C@@H]2[C@H](NC=O)C(=O)N2[C@H]1C(=O)OCc1ccccc1
inactive: dose: 75.0 mg/kg/injection, schedule: Q01DX001 (ip), vehicle: carboxymethylcellulose (CMC) 90 % of control | dose: 150.0 mg/kg/injection, schedule: Q01DX001 (ip), vehicle: carboxymethylcellulose (CMC) 86 % of control

O=C(Nc1ccc(S(=O)(=O)NC2CCCCC2)cc1)OC(c1ccccc1)c1ccccc1
inactive: [1] 96 % of control | [2] 94 % of control | [3] 100 % of control

COc1ccc(OC)c(NC(=O)Nc2ccc(OC)cc2OC)c1
inactive: dose: 100.0 mg/kg/injection, schedule: Q01DX009 (ip), vehicle: saline 110 % of control | dose: 200.0 mg/kg/injection, schedule: Q01DX009 (ip), vehicle: saline 113 % of control | dose: 400.0 mg/kg/injection, schedule: Q01DX009 (ip), vehicle: saline 108 % of control

O=C(Nc1ccc(Cl)cc1)Nc1ncccn1
inactive: [4] 96 % of control | dose: 200.0 mg/kg/injection, schedule: Q04DX002 (ip), vehicle: Klucel (hydroxypropylcellulose) (HPC) 93 % of control | [5] 96 % of control

C#CC1(OCC(CCl)OC(N)=O)CCCCC1 (configuration not stated)
inactive: [6] 105 % of control | [7] 105 % of control | [8] 105 % of control | [9] 95 % of control | dose: 100.0 mg/kg/injection, schedule: Q01DX009 (ip), vehicle: saline with Tween-80 102 % of control | [10] 101 % of control | dose: 200.0 mg/kg/injection, schedule: Q01DX009 (ip), vehicle: saline with Tween-80 105 % of control | [11] 100 % of control | dose: 400.0 mg/kg/injection, schedule: Q01DX009 (ip), vehicle: saline with Tween-80 97 % of control | [12] 86 % of control

CCCCCCC(C)N(C)CCOC(=O)c1ccc([N+](=O)[O-])cc1 (configuration not stated)
inactive: dose: 75.0 mg/kg/injection, schedule: Q01DX001 (ip), vehicle: other 101 % of control | dose: 150.0 mg/kg/injection, schedule: Q01DX001 (ip), vehicle: other 106 % of control

CN1CCC(S)(S)CC1
inactive: dose: 12.5 mg/kg/injection, schedule: Q01DX009 (ip), vehicle: saline with Tween-80 105 % of control | dose: 12.5 mg/kg/injection, schedule: Q04DX003 (ip), vehicle: saline with Tween-80 96 % of control | [6] 93 % of control | [7] 102 % of control | [8] 104 % of control | [9] 106 % of control

COc1ccc(C2C=CC(c3ccccc3)C(c3ccccc3)C2[N+](=O)[O-])cc1OC (configuration not stated)
inactive: [10] 96 % of control | [11] 94 % of control | [12] 104 % of control

CCOC(=O)c1cnc(NN)nc1Nc1ccccc1Cl
inactive: [10] 92 % of control | [11] 96 % of control

N#Cc1nc(CSc2ccc(Cl)cc2)cnc1N
inactive: dose: 100.0 mg/kg/injection, schedule: Q01DX001 (ip), vehicle: Klucel (hydroxypropylcellulose) (HPC) 95 % of control | dose: 200.0 mg/kg/injection, schedule: Q01DX001 (ip), vehicle: Klucel (hydroxypropylcellulose) (HPC) 92 % of control | dose: 400.0 mg/kg/injection, schedule: Q01DX001 (ip), vehicle: Klucel (hydroxypropylcellulose) (HPC) 89 % of control

COc1ccc(C)cc1NC(=O)Nc1ccccc1F
inactive: [13] 97 % of control and 91 % of control | [14] 89 % of control | dose: 400.0 mg/kg/injection, schedule: Q01DX009 (ip), vehicle: Klucel (hydroxypropylcellulose) (HPC) 92 % of control and 101 % of control

CC(=O)C(C(C)=O)C(=O)c1ccc2ccccc2c1
inactive: dose: 222.0 mg/kg/injection, schedule: Q01DX Z (ip), vehicle: methylcellulose (MC) 107 % of control | dose: 333.0 mg/kg/injection, schedule: Q01DX Z (ip), vehicle: methylcellulose (MC) 94 % of control | dose: 500.0 mg/kg/injection, schedule: Q01DX Z (ip), vehicle: methylcellulose (MC) 96 % of control

CCOC(=O)c1cc2c(=O)c(C(=O)OCC)c[nH]c2o1
inactive: [4] 104 % of control | [5] 104 % of control

O=C(Nc1ccc(Cl)cc1)Nc1cccc2nsnc12
inactive: dose: 100.0 mg/kg/injection, schedule: Q04DX002 (ip), vehicle: saline with Tween-80 97 % of control | dose: 200.0 mg/kg/injection, schedule: Q04DX002 (ip), vehicle: saline with Tween-80 93 % of control | dose: 400.0 mg/kg/injection, schedule: Q04DX002 (ip), vehicle: saline with Tween-80 90 % of control

OCC1(CO)COC2(CCCC2)N1
inactive: dose: 50.0 mg/kg/injection, schedule: Q01DX001 (ip), vehicle: saline 101 % of control | [1] 97 % of control | [2] 95 % of control | [3] 103 % of control

Cc1ccc(Nc2cc(Cl)nc(N)n2)cc1Cl
inactive: dose: 100.0 mg/kg/injection, schedule: Q01DX Z (ip), vehicle: methylcellulose (MC) 97 % of control | dose: 200.0 mg/kg/injection, schedule: Q01DX Z (ip), vehicle: methylcellulose (MC) 100 % of control

Cc1ccccc1N=Cc1ccc2c(c1)OCO2
inactive: [15] 106 % of control | [13] 96 % of control | [16] 98 % of control | [14] 106 % of control | dose: 200.0 mg/kg/injection, schedule: Q04DX003 (ip), vehicle: Klucel (hydroxypropylcellulose) (HPC) 89 % of control | dose: 400.0 mg/kg/injection, schedule: Q04DX003 (ip), vehicle: Klucel (hydroxypropylcellulose) (HPC) 110 % of control

CC(=O)C12OC(C)(C)OC1CC1C3CCC4=CC(=O)CCC4(C)C3CCC12C (configuration not stated)
inactive: dose: 12.5 mg/kg/injection, schedule: Q04DX002 (ip), vehicle: Klucel (hydroxypropylcellulose) (HPC) 108 % of control | dose: 25.0 mg/kg/injection, schedule: Q04DX002 (ip), vehicle: Klucel (hydroxypropylcellulose) (HPC) 108 % of control | dose: 50.0 mg/kg/injection, schedule: Q04DX002 (ip), vehicle: Klucel (hydroxypropylcellulose) (HPC) 94 % of control

O=[N+]([O-])c1ccc2c(c1)-c1ccccc1C1=NCCN12
inactive: dose: 20.0 mg/kg/injection, schedule: Q04DX003 (ip), vehicle: Klucel (hydroxypropylcellulose) (HPC) 91 % of control | dose: 25.0 mg/kg/injection, schedule: Q01DX009 (ip), vehicle: Klucel (hydroxypropylcellulose) (HPC) 105 % of control | dose: 40.0 mg/kg/injection, schedule: Q04DX003 (ip), vehicle: Klucel (hydroxypropylcellulose) (HPC) 96 % of control | [15] 102 % of control | dose: 80.0 mg/kg/injection, schedule: Q04DX003 (ip), vehicle: Klucel (hydroxypropylcellulose) (HPC) 102 % of control | [13] 105 % of control | [16] 101 % of control
